Nine compounds from US20210094954A1, “PREPARATION METHODS AND APPLICATIONS OF 3,5-DISUBSTITUTED METHYLPYRAZOLO[1,5-A]PYRIMIDINE-7-HYDROXYLIC SALTS” (priority 2019, published 2021) can be followed below.

For test [1], the system named is Streptococcus pneumoniae M2. Put plainly: microbe, parasite or virus in culture. The test is classed as cell-based. The following applies: Streptococcus pneumoniae, M2; 37° C., 24 hours; read-out: MIC values of in vitro antibacterial test results.
The test system of test [2] is Staphylococcus aureus 29231. Put plainly: microbe, parasite or virus in culture. The test is classed as cell-based. The following applies: Staphylococcus aureus, 29231; 37° C., 24 hours; read-out: MIC values of in vitro antibacterial test results.
Test [3] concerns Bacillus cereus 2. The test is described as follows: microbe, parasite or virus in culture. The test is classed as cell-based. The following applies: Bacillus cereus, 2; 37° C., 24 hours; read-out: MIC values of in vitro antibacterial test results.
Test [4] deals with Streptococcus pneumoniae 10351. The test is described as follows: microbe, parasite or virus in culture. The test is classed as cell-based. The following applies: Streptococcus pneumoniae, 10351; 37° C., 24 hours; read-out: MIC values of in vitro antibacterial test results.
In test [5] the test system is Staphylococcus aureus 43300(MRSA). The test is described as follows: microbe, parasite or virus in culture. The test is classed as cell-based. The following applies: Staphylococcus aureus, MRSA, 24 h, read-out: MIC values of in vitro antibacterial test results.
Test [6] relates to Bacillus subtilis 168. The test is described as follows: microbe, parasite or virus in culture. The test is classed as cell-based. The following applies: Bacillus subtilis, 168; 37° C., 24 hours; read-out: MIC values of in vitro antibacterial test results.
Test [7] relates to Peel fungus. The test is described as follows: organism not typed. The test is classed as cell-based. The following applies: 37° C., 24 hours; read-out: MIC values of in vitro antibacterial test results.
Test [8] deals with Enterococcus faecalis 29212. Put plainly: microbe, parasite or virus in culture. The test is classed as cell-based. The following applies: Enterococcus faecalis, 29212; 37° C., 24 hours; read-out: MIC values of in vitro antibacterial test results.
Test [9] relates to Bacillus anthracis Bacillus 1. The test is described as follows: microbe, parasite or virus in culture. The test is classed as cell-based. The following applies: Bacillus anthracis, 24 h, read-out: MIC values of in vitro antibacterial test results.
Test [10] has as its system Clostridium perfringens. Put plainly: microbe, parasite or virus in culture. The test is classed as cell-based. The following applies: Clostridium perfringens, 24 h, read-out: MIC values of in vitro antibacterial test results.
For test [11], the system named is Enterococcus faecalis F2518(VRE). The test is described as follows: microbe, parasite or virus in culture. The test is classed as cell-based. The following applies: Enterococcus faecalis, VRE, 24 h, read-out: MIC values of in vitro antibacterial test results.
Test [12] concerns Streptococcus pneumoniae 6303 (PRSP). Put plainly: microbe, parasite or virus in culture. The test is classed as cell-based. The following applies: Streptococcus pneumoniae, PRSP, 24 h, read-out: MIC values of in vitro antibacterial test results.
Test [13] concerns Streptococcus agalactia B group. The test is described as follows: microbe, parasite or virus in culture. The test is classed as cell-based. The following applies: Streptococcus; 37° C., 24 hours; read-out: MIC values of in vitro antibacterial test results.
For test [14], the system named is Diphtheria bacilli. The test is described as follows: organism not typed. The test is classed as cell-based. The following applies: 37° C., 24 hours; read-out: MIC values of in vitro antibacterial test results.
For test [15], the system named is Oral Candida. The test is described as follows: microbe, parasite or virus in culture. The test is classed as cell-based. The following applies: Candida.
Test [16] deals with Staphylococcus aureus 43300 (MRSA). The test is described as follows: antibacterial study in vivo, survival of infected kunming mice. The following applies: for Survival days: 30 days of observation.
The subject of test [17] is Staphylococcus aureus 703(MRSA). Put plainly: microbe, parasite or virus in culture. The test is classed as cell-based. The following applies: Staphylococcus aureus, MRSA, 24 h, read-out: MIC values of in vitro antibacterial test results.
Test [18] concerns F2518(VRE), Staphylococcus aureus resistant strain 43300(MRSA), 703 (MRSA), pneumococcal resistance bacteria 6303(PRSP). Put plainly: microbe, parasite or virus in culture. The test is classed as cell-based. The following applies: read-out: MIC values (μM).
The mark [19] stands for this setting: 37° C., 24 hours, read-out: MIC values of in vitro antibacterial test results.

Read-outs that look alike come from different tables or passages of the source.

As to `Cc1nn2c([O-])cc(-c3ccc(N(C)C)cc3)nc2c1-c1ccc(F)cc1F.[Na+]` [Compound 5, Sodium 3-(2,4-difluorophenyl)-5-(4-(dimethylamino)phenyl)-2-methylpyrazolo[1,5-α]pyrimidin-7-olate], the MIC was under 100 µg/mL in test [1]; over 150 µg/mL in test [2]; under 150 µg/mL in [3]; over 150 µg/mL in [4]; under 150 µg/mL in [5]; over 150 µg/mL in test [6]. The MIC was under 150 µg/mL in test [7]; under 150 µg/mL in test [8]; over 150 µg/mL in test [9]; over 150 µg/mL in [10]; under 150 µg/mL in test [11]; over 150 µg/mL in test [12]. Also, the MIC in [13] was over 150 µg/mL; in test [14] it was over 150 µg/mL; in test [15] (read-out: MIC values (μM)) it was under 100 µg/mL; in test [15] (setting [19]), under 100 µg/mL; in test [17] it was under 150 µg/mL. The “Survival days” value in [16] (dosage 30 mg/kg) came to 2.6 days.

`O=C(O)c1cn(C2CC2)c2cc(N3CCNCC3)c(F)cc2c1=O` [Ciprofloxacin, reference compound]: the “Survival days” value in test [16] (dosage 20 mg/kg) is given as 3.4 days. For the same compound, the “Life extension rate (%)” value in [16] (dosage 20 mg/kg, versus blank group) is on record as 161.5%.

On to `Cc1nn2c([O-])cc(-c3ccc(C(F)(F)F)cc3)nc2c1-c1ccc(F)cc1F.[K+]` [Compound 22, potassium 3-(2,4-difluorophenyl)-2-methyl-5-(4-(trifluoromethyl)phenyl)pyrazolo[1,5-α]pyrimidin-7-olate], for which the MIC in [1] is under 100 µg/mL; in test [2], under 100 µg/mL; in test [3] it was under 100 µg/mL; in [4], under 150 µg/mL; in [18], under 100 µg/mL; in [5], under 100 µg/mL. The MIC in test [6] is under 100 µg/mL; in [7], under 150 µg/mL; in test [8] it was under 150 µg/mL; in test [9] it was over 150 µg/mL; in [10], over 150 µg/mL; in test [11] it was under 150 µg/mL. Besides, the MIC in test [12] is under 150 µg/mL; in test [13], under 150 µg/mL; in [14], over 150 µg/mL; in test [15] (read-out: MIC values (μM)) it was under 100 µg/mL; in test [15] (setting [19]), under 100 µg/mL; in [17], under 100 µg/mL.

For `Cc1nn2c([O-])cc(-c3ccc(N(C)C)cc3)nc2c1-c1ccc(F)cc1F.[K+]` [Compound 24, Potassium 3-(2,4-difluorophenyl)-5-(4-(dimethylamino)phenyl)-2-methylpyrazolo[1,5-α]pyrimidin-7-olate], the MIC in test [1] was under 100 µg/mL; in test [2] it was under 100 µg/mL; in test [3], under 100 µg/mL; in test [4], under 100 µg/mL; in test [18] it was under 100 µg/mL; in test [5], under 150 µg/mL. Also, the MIC in [6] is under 100 µg/mL; in test [7], under 150 µg/mL; in [8], under 100 µg/mL; in test [9] it was over 150 µg/mL; in [10] it was under 150 µg/mL; in test [11], under 150 µg/mL. Further, the MIC was under 150 µg/mL in [12]; over 150 µg/mL in [13]; over 150 µg/mL in test [14]; under 100 µg/mL in [15] (read-out: MIC values (μM)); under 100 µg/mL in [15] (setting [19]); under 100 µg/mL in [17].

In the case of `Cc1nn2c([O-])cc(-c3ccc([O-])cc3)nc2c1-c1ccc(F)cc1F.[Na+].[Na+]` [Compound 6], the MIC in test [1] was under 150 µg/mL; in [2], under 100 µg/mL; in [3], under 100 µg/mL; in test [4], under 100 µg/mL; in test [18], under 100 µg/mL; in [5] it was under 100 µg/mL. The MIC in [6] is under 100 µg/mL; in test [7], under 150 µg/mL; in test [8], under 100 µg/mL; in [9] it was over 150 µg/mL; in test [10], over 150 µg/mL; in test [11], under 150 µg/mL. In addition, the MIC in test [12] is under 150 µg/mL; in test [13] it was under 150 µg/mL; in test [14], over 150 µg/mL; in test [15] (read-out: MIC values (μM)), under 100 µg/mL; in [15] (setting [19]) it was under 100 µg/mL; in test [17], under 100 µg/mL.

On to `Cc1nn2c([O-])cc(-c3ccc(F)cc3F)nc2c1-c1ccc(F)cc1F.[Na+]` [Compound 12, Sodium 3,5-bis(2,4-difluorophenyl)-2-methylpyrazolo[1,5-α]pyrimidin-7-olate], for which the MIC is under 150 µg/mL in test [1]; over 150 µg/mL in test [2]; under 100 µg/mL in test [3]; over 150 µg/mL in [4]; under 100 µg/mL in [18]; under 150 µg/mL in test [5]. The MIC in test [6] is over 150 µg/mL; in [7], under 150 µg/mL; in test [8], under 150 µg/mL; in test [9], over 150 µg/mL; in test [10], over 150 µg/mL; in test [11], under 150 µg/mL. For the same compound, the MIC in [12] is over 150 µg/mL; in test [13], over 150 µg/mL; in [14], over 150 µg/mL; in test [15] (setting [19]), under 150 µg/mL; in test [17], under 150 µg/mL.

Turning to `Cc1nn2c([O-])cc(-c3ccc(C(N)=O)nc3)nc2c1-c1ccc(F)cc1F.[Na+]` [Compound 32], the MIC in test [1] was under 100 µg/mL; in [2], over 150 µg/mL; in [3] it was under 100 µg/mL; in test [4] it was over 150 µg/mL; in test [18], under 100 µg/mL; in [5] it was under 100 µg/mL. In addition, the MIC was over 150 µg/mL in test [6]; under 150 µg/mL in [7]; under 150 µg/mL in test [8]; over 150 µg/mL in test [9]; over 150 µg/mL in test [10]; under 150 µg/mL in test [11]. For the same compound, the MIC was under 150 µg/mL in test [12]; over 150 µg/mL in [13]; over 150 µg/mL in test [14]; under 100 µg/mL in test [15] (read-out: MIC values (μM)); under 100 µg/mL in test [15] (setting [19]); under 150 µg/mL in test [17].

For the compound `COc1ccc(-c2cc([O-])n3nc(C)c(-c4ccc(F)cc4F)c3n2)cn1.[Na+]` [Compound 17, sodium 3-(2,4-difluorophenyl)-5-(6-methoxypyridin-3-yl)-2-methylpyrazolo[1,5-α]pyrimidin-7-olate], the MIC in test [1] is under 100 µg/mL; in test [2] it was over 150 µg/mL; in [3], under 150 µg/mL; in test [4], over 150 µg/mL; in [18], under 100 µg/mL; in test [5] it was under 100 µg/mL. In addition, the MIC was over 150 µg/mL in test [6]; under 150 µg/mL in test [7]; under 150 µg/mL in test [8]; over 150 µg/mL in test [9]; over 150 µg/mL in test [10]; under 150 µg/mL in test [11]. Further, the MIC is over 150 µg/mL in [12]; over 150 µg/mL in test [13]; over 150 µg/mL in [14]; under 100 µg/mL in test [15] (read-out: MIC values (μM)); under 100 µg/mL in [15] (setting [19]); under 150 µg/mL in test [17].

For the compound `Cc1nn2c([O-])cc(-c3ccc(C#N)nc3)nc2c1-c1ccc(F)cc1F.[K+]` [Compound 27, Potassium 5-(6-cyanopyridin-3-yl)-3-(2,4-difluorophenyl)-2-methylpyrazolo[1,5-α]pyrimidin-7-olate], the MIC is under 100 µg/mL in test [1]; under 100 µg/mL in test [2]; under 100 µg/mL in [3]; under 100 µg/mL in test [4]; under 100 µg/mL in [18]; under 150 µg/mL in test [5]. Moreover, the MIC was under 100 µg/mL in [6]; over 150 µg/mL in test [7]; under 100 µg/mL in test [8]; over 150 µg/mL in test [9]; under 150 µg/mL in test [10]; under 150 µg/mL in [11]. The MIC in test [12] was under 100 µg/mL; in test [13] it was over 150 µg/mL; in test [14] it was under 150 µg/mL; in test [15] (read-out: MIC values (μM)), under 100 µg/mL; in [15] (setting [19]) it was under 100 µg/mL; in test [17], under 100 µg/mL.
